Assays:
[1] = test system: angiogenesis/capillary network formation; settings: literature; cited from earlier work
tumour metastasis = settings: literature; cited from earlier work
human urokinase = target: T1, human urokinase (Homo sapiens, UniProt P00749); assay: Inhibition of human urokinase (HMWT human urokinase, substrate S-2444); assay type: biochemical; settings: S-2444 substrate, read-out: Ki uPA
T1 construct: the urokinase used was HMWT Human Urokinase (Calbiochem 672081); purchased Calbiochem 672081

human plasmin = human plasmin (Homo sapiens, UniProt P00747); assay: Inhibition of human plasmin (substrate Chromozym-PL); assay type: biochemical; settings: selectivity for uPA over human plasmin
human plasmin, sequence (P00747 97-810): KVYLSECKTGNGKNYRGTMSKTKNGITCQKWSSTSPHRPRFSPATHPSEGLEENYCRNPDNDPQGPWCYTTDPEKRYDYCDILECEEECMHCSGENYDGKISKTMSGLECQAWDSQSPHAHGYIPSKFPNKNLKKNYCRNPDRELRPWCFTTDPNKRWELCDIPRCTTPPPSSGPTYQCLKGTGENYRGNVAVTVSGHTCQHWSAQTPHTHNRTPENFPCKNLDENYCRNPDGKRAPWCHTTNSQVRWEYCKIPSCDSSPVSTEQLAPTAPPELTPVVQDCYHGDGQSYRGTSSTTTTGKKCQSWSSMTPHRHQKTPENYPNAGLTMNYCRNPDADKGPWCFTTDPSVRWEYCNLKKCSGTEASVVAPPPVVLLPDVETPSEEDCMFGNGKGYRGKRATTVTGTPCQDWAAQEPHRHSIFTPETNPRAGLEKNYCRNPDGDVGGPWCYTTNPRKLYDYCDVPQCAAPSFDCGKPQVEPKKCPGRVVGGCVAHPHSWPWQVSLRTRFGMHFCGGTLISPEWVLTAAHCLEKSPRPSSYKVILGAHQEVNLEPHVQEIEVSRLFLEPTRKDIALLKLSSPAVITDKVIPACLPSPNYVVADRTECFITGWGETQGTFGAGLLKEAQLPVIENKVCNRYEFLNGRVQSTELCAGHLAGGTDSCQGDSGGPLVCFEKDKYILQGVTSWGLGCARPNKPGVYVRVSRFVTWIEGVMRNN

human tPA = human tPA (Homo sapiens, UniProt P00750); assay: Inhibition of human tPA (substrate S-2288, tPA stimulator); assay type: biochemical; settings: selectivity for uPA over human tPA
human tPA, sequence (P00750 33-562): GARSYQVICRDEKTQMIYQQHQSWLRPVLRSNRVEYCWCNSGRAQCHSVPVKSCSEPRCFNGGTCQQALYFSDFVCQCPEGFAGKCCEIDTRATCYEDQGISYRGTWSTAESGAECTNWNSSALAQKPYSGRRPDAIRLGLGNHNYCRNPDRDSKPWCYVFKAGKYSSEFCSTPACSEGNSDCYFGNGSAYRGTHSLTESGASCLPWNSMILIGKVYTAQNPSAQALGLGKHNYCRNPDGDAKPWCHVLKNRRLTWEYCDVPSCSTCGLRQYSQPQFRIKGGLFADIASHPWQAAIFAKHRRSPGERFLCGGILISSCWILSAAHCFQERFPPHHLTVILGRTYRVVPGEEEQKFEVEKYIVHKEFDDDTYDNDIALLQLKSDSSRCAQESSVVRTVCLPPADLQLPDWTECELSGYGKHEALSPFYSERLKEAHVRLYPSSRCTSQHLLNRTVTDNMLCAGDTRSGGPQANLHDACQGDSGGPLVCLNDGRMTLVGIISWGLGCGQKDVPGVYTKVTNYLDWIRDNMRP

Row | SMILES | inhibition of angiogenesis/capillary network formation in vitro [1] | inhibition of tumour metastasis/invasion in vivo (tumour metastasis) | Ki (human urokinase) | vs. plasmin* (selectivity figures) (human plasmin) | vs. tPA* (selectivity figures) (human tPA)
1 | N=C(N)NC(=O)c1nc(Cl)c(N)nc1N [Amiloride] | angiogenesis/capillary network formation in vitro | inhibit tumour metastasis in vivo |  |  | 
2 | NC(N)=Nc1nccc2ccc(/C=C/c3ccccc3)cc12 [Example 19] |  |  | 400 nM | 68 | 88
3 | NC(N)=Nc1nccc2ccc(Br)cc12 [Example 15] |  |  | 249 nM | 204 | 380

From patent US6248738A, “Isoquinolines as urokinase inhibitors” (Pfizer Inc., priority 1997, dated 2001)
